As usually defined, the solubility is how much of the substance goes into solution per volume. A lower solubility goes with a poorly soluble substance. What is called IC50 is the concentration needed to halve the response being measured.

Experimental findings from US8304418B2, “Pyrazolopyrimidinone kinase inhibitor” (Agennix AG, priority 2007, dated 2012) are described below.

Converted amounts (≈) assume the structure as drawn. “And” between values parts separate entries of the source, which are not always exact repeats. Equal entries are not always repeated. Where two headings read alike, the source gives them in different places.

Data set [1] can be described thus: PAMPA permeability assay at pH 7.4. Type of data set: in vitro ADME. The protocol: (§1) The assays used for determining the properties of the kinase inhibitors were performed in accordance with standard procedures well known to those skilled in the art. For example, assays for determining inhibitory activity on CDKs or in cellular assays are described in WO 00/218962, WO 2005/026129, and WO 2005/063765. Solubility assays at pH 7.4 were essentially performed as described by Avdeef, A. in Pharmacokinetic Optimization in Drug Research; Testa, B.; van de Waterbeemd, H.; Folkers, G.; Guy, R. Eds.; Wiley-VHC: Zurich, 2001; pp 305-326. PAMPA permeability assays at pH 7.4 were essentially performed as described in Kansy et al., J. Med. Chem. 41: 1007-10, 1998.
(In general: In PAMPA a lipid-coated filter parts donor from acceptor wells.)

The nature of data set [2]: Solubility assay at pH 7.4. The class given is physicochemical. The conditions noted are these: pH 7.4, aqueous buffer. How it is done:
as §1

The next data set deals with CDK6 (Homo sapiens, UniProt Q00534). Nature of the data set: Biochemical CDK6 inhibition assay. How it is done:
as §1

Data set [3] deals with human A2780 ovarian tumor cells. The protocol: Compound P (as hydrochloric acid salt) was formulated in 30% PEG300/70% water, and Compound I (as hydrochloric acid salt) was formulated in 20% PEG300/80% D5W (5% dextrose water) and administered by oral gavage twice every day for 10 days (bid×10), while the Cytoxan control which was administered i.p. in saline every two days over a period of 10 days (q2 d×5): […]

The subject of data set [4] is CDK4/6-specific phosphorylation of Rb on serine 780. Nature of the data set: In-cell Rb phosphorylation (immunoblot). The class given is cell-based, human. The conditions noted are these: Homo sapiens, read-out: IC50 (uM) - Rb-5 phosphorylation. The source says:
This set of assays represents CDKs involved in cell cycle progression (CDK1, 4/6), and the “regulatory CDK” (CDK9) which is involved in transcriptional regulation.
The following cancer cell lines were investigated in the course of these studies: A2780 (ovarian), HCT116 (colon), RPMI8226 (myeloma), SKMel28 (melanoma), Colo205 (colorectal), MDA-MB-435 (melanoma), MDA-MB-453 (breast, carcinoma), MDA-MB-468 (breast, adenocarcinoma), A549 (lung), Raji (lymphoma, Burkitt). Cell lines were obtained from public repositories.
CDK4/6-specific phosphorylation of Rb on serine 780 (Ser780phos). Asynchronous growing cells were treated with an appropriate concentration of test compound or DMSO for 1 hour. Proteins were extracted using the AllPrep RNA/Protein kit according to the manufacturer's recommendations (Qiagen, Germany). Rb was immunoprecipitated over night using Ab05 antibody (Oncogene Inc.). Proteins were separated by SDS-PAGE, blotted to PVDF membranes and analyzed with antibodies against total (sc-102; Santa Cruz) or Ser780-phosphorylated Rb proteins (Cell Signalling). Visualization and quantification was performed as above.
A general note: Immunoblotting shows a protein as a band on a membrane.

Another data set has as its system A2780. The experiment in a line: Cell proliferation, A2780. Type of data set: cell-based. The conditions noted are these: Homo sapiens. The protocol: as §1
When compared to IC50s of cellular proliferation by compound I, (as determined by the methods described earlier), the corresponding IC50 for cellular inhibition of CDK9-dependent RNAPII phosphorylation is approximately similar.

Chain of CDK6 (Q00534 whole entry): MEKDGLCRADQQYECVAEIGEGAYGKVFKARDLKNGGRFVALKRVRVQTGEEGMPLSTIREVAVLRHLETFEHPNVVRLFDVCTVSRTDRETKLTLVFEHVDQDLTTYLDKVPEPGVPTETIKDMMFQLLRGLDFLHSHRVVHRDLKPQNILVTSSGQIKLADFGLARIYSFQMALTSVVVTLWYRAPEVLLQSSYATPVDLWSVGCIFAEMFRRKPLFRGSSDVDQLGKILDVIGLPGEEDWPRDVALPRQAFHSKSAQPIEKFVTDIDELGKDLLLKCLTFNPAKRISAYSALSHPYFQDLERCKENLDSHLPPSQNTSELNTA
Chain of CDK6 (P30281 whole entry partner): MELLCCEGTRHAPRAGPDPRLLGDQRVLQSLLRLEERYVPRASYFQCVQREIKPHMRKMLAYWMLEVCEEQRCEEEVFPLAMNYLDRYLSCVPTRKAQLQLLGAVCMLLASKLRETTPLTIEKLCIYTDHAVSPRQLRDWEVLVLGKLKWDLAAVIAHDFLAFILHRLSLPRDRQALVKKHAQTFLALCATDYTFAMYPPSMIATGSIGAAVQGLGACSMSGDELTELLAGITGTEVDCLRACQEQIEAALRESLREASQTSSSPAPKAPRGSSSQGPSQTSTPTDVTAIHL

`CC(C)c1nn(-c2c(Cl)cncc2Cl)c2nc(Cc3ccc(CN4CCCC4)c(O)c3)[nH]c(=O)c12` [Compound I, 1-(3,5-dichloropyridin-4-yl)-6-(3-hydroxy-4-pyrrolidinomethyl-phenyl)methyl-3-isopropyl-pyrazolo[3,4-d]pyrimidin-4-one]: the “permeability in a PAMPA assay” value in data set [1] is given as “about 70%”. Also, in data set [2], the solubility was roughly 390 µM (≈ 200 µg/mL). Moreover, the IC50 against CDK6 was 0.01 to 0.05 µM; in data set [4] (A2780, 1 h, A2780 cells) it was roughly 0.5 µM; in data set [4] (HCT-116, 1 h, HCT116 cells) it was roughly 5 µM; in data set [4] (MDA-MB-435, 1 h, MDA-MB-435 cells), roughly 3 µM; in data set [4] (RPMI-8226, 1 h, RPMI8226 cells), roughly 5 µM; in data set [4] (SK-MEL-28, 1 h, Sk-mel-28 cells) it was roughly 3 µM. In the data set on A2780, this compound gave an IC50 of roughly 0.1 µM. For the same compound, the “Toxic Mortality” value in data set [3] (15 [14] mg/kg po bidx10, N=10) came out at 0; in data set [3] (32 [30] mg/kg po bidx10, N=10), 0; in data set [3] (48 [45] mg/kg po bidx10, N=10) it was 0. For the same compound, the “Max % TGI (d)” value in data set [3] (15 [14] mg/kg po bidx10, day 10) is reported as 47 (10) %; in data set [3] (32 [30] mg/kg po bidx10, day 13), 81 (13) %; in data set [3] (48 [45] mg/kg po bidx10, day 13), 97 (13) %. The “Max % BW Loss (d)” value in data set [3] (15 [14 free base] mg/kg po bidx10, HCl salt, day 6) is reported as 0 (6) %; in data set [3] (32 [30] mg/kg po bidx10, day 15) it was 4.8 (15) %; in data set [3] (48 [45] mg/kg po bidx10, day 15) it was 15.9 (15) %. Moreover, the “LCK ± CI (95%) (Td: 2.1 d)” value in data set [3] (32 [30] mg/kg po bidx10) is 1.72 ± 0.89 and 1.72; in data set [3] (48 [45] mg/kg po bidx10) it was 3.38 ± 0.81 and 3.38. The compound also yielded a Cure in data set [3] (48 [45] mg/kg po bidx10, N=10) of 3. This compound also registered a CR in data set [3] (48 [45] mg/kg po bidx10, mice with complete regression, N=10) of 1. In data set [3] (48 [45] mg/kg po bidx10, mice with partial regression, N=10), the PR was determined as 5.
